Calls of active or inactive are those of the source. No cut-off for these calls is given here.
How the values were obtained:
B-cell line = assay: Immunosuppressive activity in mouse B-lymphocyte assessed as reduction in LPS-induced cell proliferation incubated for 48 hrs; type: functional, cell-based
[1] = Genotoxicity in Salmonella typhimurium by Ames test; type: toxicity; details: salmonella enterica subsp. enterica serovar typhimurium
[2] = Cmax in male C57 mouse at 5 mg/kg, po measured upto 24 hrs; type: ADME, organism-based; details: in vivo
[3] = Toxicity in male Kunming mouse assessed as change in food intake at 100 to 500 mg/kg/day, po measured after 5 weeks; type: organism-based; details: in vivo, 840 h, dose 100-500 mg/kg/day
[4] = Half life in male C57 mouse at 5 mg/kg, po measured upto 24 hrs; type: ADME, organism-based; details: in vivo
[5] = MRT last in male C57 mouse at 5 mg/kg, po measured upto 24 hrs; type: ADME, organism-based; details: in vivo
[6] = AUC last in male C57 mouse at 5 mg/kg, po measured upto 24 hrs; type: ADME, organism-based; details: in vivo
[7] = Cytotoxicity against mouse Splenocyte by MTT assay; type: toxicity, cell-based; details: splenocytes
[8] = Apparent volume of distribution in male C57 mouse at 5 mg/kg, po measured upto 24 hrs; type: ADME, organism-based; details: in vivo
Mus musculus [9] = assay: Antiinflammatory activity in DSS-induced male C57BL/6 mouse model of inflammatory bowel disease assessed as recovery in colon length at 40 mg/kg/day, po measured after 7 days relative to control; type: functional; details: time 7 day
[10] = AUC infinity in male C57 mouse at 1 mg/kg, iv measured upto 24 hrs; type: ADME, organism-based; details: in vivo
[11] = Toxicity in male Kunming mouse assessed as effect on […] level in serum at 100 to 500 mg/kg/day, po measured after 5 weeks; type: organism-based; details: in vivo, 840 h, dose 100-500 mg/kg/day
[12] = Clearance in male C57 mouse at 1 mg/kg, iv measured upto 24 hrs; type: ADME, organism-based; details: in vivo
[13] = AUC last in male C57 mouse at 1 mg/kg, iv measured upto 24 hrs; type: ADME, organism-based; details: in vivo
[14] = Toxicity in female Kunming mouse assessed as effect on TBIL level in serum at 100 to 500 mg/kg/day, po measured after 5 weeks; type: organism-based; details: in vivo, 840 h, dose 100-500 mg/kg/day
[15] = Apparent volume of distribution in male C57 mouse at 1 mg/kg, iv measured upto 24 hrs; type: ADME, organism-based; details: in vivo, read-out: Vz
[16] = Toxicity in female Kunming mouse assessed as effect on T-CHO level in serum at 100 to 500 mg/kg/day, po measured after 5 weeks; type: organism-based; details: in vivo, 840 h, dose 100-500 mg/kg/day
[17] = Toxicity in female Kunming mouse assessed as effect on kidney at 100 to 500 mg/kg/day, po measured after 5 weeks by H and E staining based analysis; type: organism-based; details: in vivo, 840 h, dose 100-500 mg/kg/day
[18] = Selectivity ratio of CC50 for cytotoxicity against mouse Splenocyte to IC50 for immunosuppressive activity in mouse B-lymphocyte; type: toxicity; details: splenocytes (CC50) and B-lymphocytes (IC50)
[19] = Clearance in male C57 mouse at 5 mg/kg, po measured upto 24 hrs; type: ADME, organism-based; details: in vivo
[20] = Toxicity in male Kunming mouse assessed as effect on liver at 100 to 500 mg/kg/day, po measured after 5 weeks by H and E staining based analysis; type: organism-based; details: in vivo, 840 h, dose 100-500 mg/kg/day
[21] = Toxicity in female Kunming mouse assessed as effect on lung at 100 to 500 mg/kg/day, po measured after 5 weeks by H and E staining based analysis; type: organism-based; details: in vivo, 840 h, dose 100-500 mg/kg/day
[22] = Toxicity in male Kunming mouse assessed as effect on TP level in serum at 100 to 500 mg/kg/day, po measured after 5 weeks; type: organism-based; details: in vivo, 840 h, dose 100-500 mg/kg/day
[23] = Toxicity in female Kunming mouse assessed as effect on Na inorganic salt level in serum at 100 to 500 mg/kg/day, po measured after 5 weeks; type: organism-based; details: in vivo, 840 h, dose 100-500 mg/kg/day
[24] = Toxicity in female Kunming mouse assessed as effect on CK level in serum at 100 to 500 mg/kg/day, po measured after 5 weeks; type: organism-based; details: in vivo, 840 h, dose 100-500 mg/kg/day
[25] = Metabolic stability in human plasma assessed as half life at pH 7.4 measured upto 60 mins by HPLC-MS analysis; type: ADME, cell-free
[26] = Acute toxicity in male Kunming mouse assessed as effect on liver 5 g/Kg, po measured after 5 weeks; type: organism-based; details: in vivo, 5000 mg/kg, 840 h
[27] = Half life in male C57 mouse at 1 mg/kg, iv measured upto 24 hrs; type: ADME, organism-based; details: in vivo
[28] = Toxicity in male Kunming mouse assessed as effect on CK level in serum at 100 to 500 mg/kg/day, po measured after 5 weeks; type: organism-based; details: in vivo, 840 h, dose 100-500 mg/kg/day
Mus musculus [29] = assay: Antiinflammatory activity in DSS-induced male C57BL/6 mouse model of inflammatory bowel disease assessed as recovery from body weight loss at 40 mg/kg/day, po measured after 7 days relative to control; type: functional; details: time 7 day
[30] = Oral bioavailability in male C57 mouse at 5 mg/kg measured upto 24 hrs; type: ADME, organism-based; details: in vivo
[31] = Toxicity in female Kunming mouse assessed as change in food intake at 100 to 500 mg/kg/day, po measured after 5 weeks; type: organism-based; details: in vivo, 840 h, dose 100-500 mg/kg/day
Mus musculus [32] = assay: Antiinflammatory activity in DSS-induced male C57BL/6 mouse model of inflammatory bowel disease assessed as recovery from body weight loss at 40 mg/kg/day, po measured after 7 days; type: functional, organism-based; details: time 7.0 day
[33] = Immunosuppressive activity in mouse T-lymphocyte assessed as reduction in concanavalin A-induced cell proliferation incubated for 48 hrs; type: functional, cell-based
[34] = Toxicity in female Kunming mouse assessed as effect on CREA level in serum at 100 to 500 mg/kg/day, po measured after 5 weeks; type: organism-based; details: in vivo, 840 h, dose 100-500 mg/kg/day
[35] = Selectivity ratio of CC50 for cytotoxicity against mouse Splenocyte to IC50 for immunosuppressive activity in mouse T-lymphocyte; type: toxicity; details: splenocytes (CC50) and T-lymphocytes (IC50)
[36] = AUC infinity in male C57 mouse at 5 mg/kg, po measured upto 24 hrs; type: ADME, organism-based; details: in vivo
[37] = Toxicity in male Kunming mouse assessed as effect on CREA level in serum at 100 to 500 mg/kg/day, po measured after 5 weeks; type: organism-based; details: in vivo, 840 h, dose 100-500 mg/kg/day
[38] = Tmax in male C57 mouse at 5 mg/kg, po measured upto 24 hrs; type: ADME, organism-based; details: in vivo
[39] = MRT last in male C57 mouse at 1 mg/kg, iv measured upto 24 hrs; type: ADME, organism-based; details: in vivo
Mus musculus [40] = assay: Antiinflammatory activity in DSS-induced male C57BL/6 mouse model of inflammatory bowel disease assessed as recovery from body weight loss at 10 mg/kg/day, ip measured after 14 days relative to control; type: functional; details: time 14 day
Mus musculus [41] = organism: Mus musculus; assay: Antiinflammatory activity in DSS-induced male C57BL/6 mouse model of inflammatory bowel disease assessed as reduction in TLR8 level; type: functional, organism-based
Mus musculus [42] = assay: Antiinflammatory activity in DSS-induced male C57BL/6 mouse model of inflammatory bowel disease assessed as reduction of severe diarrhea at 15 to 60 mg/kg/day, po via gavage measured upto 14 days; type: functional, organism-based; details: dose 15-60 mg/kg/day, time <= 14.0 day
Mus musculus [43] = assay: Antiinflammatory activity in DSS-induced male C57BL/6 mouse model of inflammatory bowel disease assessed as downregulation of MyD88 expression at 50 to 200 microM/Kg by Western blot analysis; type: functional, organism-based; details: dose 50-200 µM/Kg

SMILES | IC50 (B-cell line) [µM] | Cmax [2] [ng/mL] | MRT last at 24 h [5] [min] | AUC(0-t) at 24 h [6] [ng·h/mL] | CC50 [7] [µM] | Vz [8] [L/kg] | Activity (Mus musculus [9]) [%] | AUC(0-inf) [10] [ng·h/mL] | clearance [12] [mL/min/kg] | AUC(0-t) at 24 h [13] [ng·h/mL] | Vd [15] [L/kg] | selectivity ratio [18] | half-life [27] [min] | Activity (Mus musculus [29]) [%] | bioavailability [30] [%] | Activity (Mus musculus [32]) | IC50 [33] [µM] | selectivity ratio [35] | AUC(0-inf) [36] [ng·h/mL] | Tmax [38] [min] | further results
CC(=O)OC[C@H]1O[C@@H](OC2=C(C)OC(=C(C)C)C2=O)[C@H](OC(C)=O)[C@@H](OC(C)=O)[C@@H]1OC(C)=O | 3.15 | 48.4 | 63.6 | 58.3 | 60 | 137.3 | 33.3 | 44 | 397 | 32.3 | 9.25 | 22 | 16.2 | 27 | 36.1 | Active | 42.9 | 1.44 | 93.6 | 19.8 | Activity [1]: Non-toxic; Activity [3]: Non-toxic; half-life ([4]; male, C57, mouse): 115 min; Activity [11]: Non-toxic; Activity [14]: Non-toxic; Activity [16]: Non-toxic; Activity [17]: Non-toxic; CL/F ([19]; male, C57, mouse): 915 mL/min/kg; Activity [20]: Non-toxic; Activity [21]: Non-toxic; Activity [22]: Non-toxic; Activity [23]: Non-toxic; Activity [24]: Non-toxic; half-life [25]: 27.7 min; Activity [26]: Non-toxic; Activity [28]: Non-toxic; Activity [31]: Non-toxic; Activity [34]: Non-toxic; Activity [37]: Non-toxic; MRT last at 24 h [39]: 10.2 min
CC(C)=C1OC(C)=C(O[C@@H]2O[C@H](CO)[C@@H](O)[C@H](O)[C@H]2O)C1=O | 85.8 | 284 | 254 | 177 | 149 | 29.6 | 50.5 | 594 | 28.5 | 592 | 1.09 | 1.9 | 27 | 45.6 | 6 | Active | 308 | 0.63 | 180 | 15 | t1/2 ([4]; mouse, po, 5 mg/kg, 24 h): 332 min; Activity (Mus musculus [40]): 37.5%; Activity (Mus musculus [41]): Active; CL ([19]; mouse, po, 5 mg/kg, 24 h): 475.7 mL/min/kg; Activity (Mus musculus [42]): Active; MRT last at 24 h [39]: 19.8 min; Activity (Mus musculus [43]): Active

Source: ChEMBL document CHEMBL6120946, “From Hit to Lead: Discovery of First-In-Class Furanone Glycoside D228 Derived from Chimonanthus salicifolius for the Treatment of Inflammatory Bowel Disease” (J Med Chem, 2024)
